This note sets out measurements from article PMC6934184, “Selective DNA-PKcs inhibition extends the therapeutic index of localized radiotherapy and chemotherapy” (The Journal of Clinical Investigation, 2019).

In the assay the target is T1, CDK9 (Inactive) (Homo sapiens, UniProt P50750).
T1 construct: purchased Thermo Fisher Scientific (Life Technologies) SelectScreen
Nature of the assay: SelectScreen LanthaScreen. The assay is classed as binding. As to conditions: read-out: % displacement. In short, it runs like this:
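Percent values come from Thermo SelectScreen profiling of NU5455, combining activity and binding assays. CSF1R was run in Z'LYTE format at Km app ATP, and CAMK1 in Adapta format with ATP listed at 10.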

T1 sequence (P50750 whole entry): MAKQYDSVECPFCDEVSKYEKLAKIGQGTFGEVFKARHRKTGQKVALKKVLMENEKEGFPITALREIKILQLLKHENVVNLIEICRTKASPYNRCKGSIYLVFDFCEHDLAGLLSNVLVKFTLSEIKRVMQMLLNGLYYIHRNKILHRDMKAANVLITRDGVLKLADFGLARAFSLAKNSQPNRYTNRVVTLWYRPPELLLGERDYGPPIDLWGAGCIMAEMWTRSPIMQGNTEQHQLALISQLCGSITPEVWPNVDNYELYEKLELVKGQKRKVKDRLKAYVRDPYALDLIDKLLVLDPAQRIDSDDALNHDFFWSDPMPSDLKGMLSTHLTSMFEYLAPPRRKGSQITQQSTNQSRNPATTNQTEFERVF

With `CN(C(=O)CN1CCOCC1)c1ccc2sc3c(-c4cccc5c(=O)cc(N6CC7CCC(C6)O7)oc45)cccc3c2c1` [NU5455], the inhibition at 1 µM was determined as 9%.
